BindingDB's records for patent US12378251 (Shanghai Institute Of Materia Medica, 2025)

Biological target: NEDD8-activating enzyme E1 regulatory subunit/NEDD8-activating enzyme E1 catalytic subunit (Human, UniProt Q8TBC4)
Assay: Test of Inhibiting NAE Enzyme Activity at the Molecular Level
Experimental: 1. Preliminary Evaluation Experiment of Inhibiting NAE Enzyme Activity at the Molecular Level by CompoundsHomogeneous Time-Resolved Fluorescence (HTRF) technology was used to detect the in vitro inhibitory effect of the compound on NAE enzyme activity. […] IC50 was calculated with a GraphPad software.

Chain of NEDD8-activating enzyme E1 regulatory subunit/NEDD8-activating enzyme E1 catalytic subunit (Q13564 whole entry): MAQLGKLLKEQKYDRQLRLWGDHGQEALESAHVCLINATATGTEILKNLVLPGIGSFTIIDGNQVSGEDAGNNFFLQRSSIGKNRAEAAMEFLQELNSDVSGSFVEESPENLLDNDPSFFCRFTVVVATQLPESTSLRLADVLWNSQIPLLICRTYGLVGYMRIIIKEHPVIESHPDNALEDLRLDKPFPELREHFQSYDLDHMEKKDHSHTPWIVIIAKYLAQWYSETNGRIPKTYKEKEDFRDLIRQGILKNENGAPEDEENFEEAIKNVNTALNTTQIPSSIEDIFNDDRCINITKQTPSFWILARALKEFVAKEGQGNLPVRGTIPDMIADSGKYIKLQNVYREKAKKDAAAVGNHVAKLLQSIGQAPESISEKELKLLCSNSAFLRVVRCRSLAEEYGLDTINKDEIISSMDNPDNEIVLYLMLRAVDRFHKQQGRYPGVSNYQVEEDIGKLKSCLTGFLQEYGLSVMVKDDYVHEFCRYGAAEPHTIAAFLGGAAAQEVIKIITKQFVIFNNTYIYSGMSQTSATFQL
Chain of NEDD8-activating enzyme E1 regulatory subunit/NEDD8-activating enzyme E1 catalytic subunit (Q8TBC4 whole entry): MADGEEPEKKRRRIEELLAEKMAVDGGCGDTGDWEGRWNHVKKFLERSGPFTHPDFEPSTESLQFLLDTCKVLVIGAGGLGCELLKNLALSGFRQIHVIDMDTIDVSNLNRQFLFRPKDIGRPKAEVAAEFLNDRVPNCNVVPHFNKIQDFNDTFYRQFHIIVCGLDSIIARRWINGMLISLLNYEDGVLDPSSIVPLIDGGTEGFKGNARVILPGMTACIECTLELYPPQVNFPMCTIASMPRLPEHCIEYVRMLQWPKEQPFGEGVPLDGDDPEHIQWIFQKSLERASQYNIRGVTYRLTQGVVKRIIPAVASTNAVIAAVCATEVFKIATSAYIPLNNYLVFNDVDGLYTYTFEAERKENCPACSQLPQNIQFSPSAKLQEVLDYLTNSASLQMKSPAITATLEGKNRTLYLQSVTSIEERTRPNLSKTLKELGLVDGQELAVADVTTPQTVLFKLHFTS

Row | SMILES | IC50 [nM]
1 | NS(=O)(=O)OCC1CC(n2nnc3c(N[C@H]4CCc5ccccc54)ncnc32)CC1O (some centres undefined) [US12378251, Compound S1] | < 100
2 | NS(=O)(=O)OCC1CC(n2nnc3c(NCc4ccccc4F)ncnc32)CC1O (centres undefined) [US12378251, Compound S2] | < 100
3 | NS(=O)(=O)OCC1CC(n2nnc3c(NCc4cccs4)ncnc32)CC1O (centres undefined) [US12378251, Compound S3] | < 100
4 | NS(=O)(=O)OCC1CC(n2nnc3c(NCc4ccco4)ncnc32)CC1O (centres undefined) [US12378251, Compound S4] | < 100
5 | NS(=O)(=O)OCC1CC(n2nnc3c(NCCc4ccccc4)ncnc32)CC1O (centres undefined) [US12378251, Compound S6] | < 100
6 | CCCCCCNc1ncnc2c1nnn2C1CC(O)C(COS(N)(=O)=O)C1 (centres undefined) [US12378251, Compound S8] | < 100
7 | NS(=O)(=O)OCC1CC(n2nnc3c(N[C@@H]4c5ccccc5C[C@@H]4O)ncnc32)CC1O (some centres undefined) [US12378251, Compound S9] | < 100
8 | NS(=O)(=O)OCC1CC(n2nnc3c(N[C@H]4CC5(CCNCC5)c5ccccc54)ncnc32)CC1O (some centres undefined) [US12378251, Compound S14] | < 100
9 | NS(=O)(=O)OC[C@@H]1C[C@@H](n2nnc3c(N[C@@H]4C[C@H]4c4ccc(F)c(F)c4)ncnc32)CC1O (some centres undefined) [US12378251, Compound S16] | > 1000
10 | NS(=O)(=O)OCC1CC(n2nnc3c(Nc4n[nH]c5ccccc45)ncnc32)CC1O (centres undefined) [US12378251, Compound S17] | > 1000
11 | NS(=O)(=O)OCC1CC(n2nnc3c(Nn4ccc5ccccc54)ncnc32)CC1O (centres undefined) [US12378251, Compound S18] | > 1000
12 | NS(=O)(=O)OCC1CC(n2nnc3c(Nc4cnc5ccccn45)ncnc32)CC1O (centres undefined) [US12378251, Compound S19] | > 1000
13 | COC(=O)[C@H]1C=C[C@@H](Nc2ncnc3c2nnn3C2CC(O)C(COS(N)(=O)=O)C2)C1 (some centres undefined) [US12378251, Compound S20] | < 100
14 | NS(=O)(=O)OCC1CC(n2nnc3c(NC4CCCC4)ncnc32)CC1O (centres undefined) [US12378251, Compound S21] | > 1000
